# Source: patent US20130210752A1, “USING A NOVEL HIGH-THROUGHPUT YEAST CELL-BASED SCREENING PLATFORM TO IDENTIFY HMG-COA REDUCTASE INHIBITORS FROM NATURAL PRODUCTS AND THE USES OF SUCH INHIBITORS THEREOF” (HONG KONG BAPTIST UNIVERSITY, priority 2012, published 2013)
# How the values were obtained:
# [1] = system: yeast cells lacking HMG1 and HMG2 with HMG1 overexpression plasmid (HMG-CoAR); assay: Yeast HMG-CoAR screening assay (yeast cell growth, OD660, with or without mevalonate); format: cell-based, Saccharomyces cerevisiae; conditions: for restoration of growth / reduction of inhibitory effect in the presence of mevalonate (compounds from Fraction 7): 300 μg/ml (7E1: 150 μg/ml), with mevalonate; for growth inhibition in the yeast cells: without mevalonate
# Description: The present invention provides a screening method to identify potential HMG-CoAR inhibitors. The present method comprises providing a yeast strain which lacks HMG1 and HMG2 genes but containing a HMG1 overexpression plasmid, contacting said yeast strain with a test material. If the test material can inhibit the HMG1 activity or expression, the yeast cells will die. In order to validate the death of yeast cells is due to inhibition of HMG1 by the test material, the present invention also includes adding mevalonate compound, which is a downstream product of the HMG-CoAR. HMG-CoAR inhibitory activity of the test material is confirmed if the cell viability of the yeast strain is unaffected by the test material in the presence of mevalonate.
# Saccharomyces cerevisiae (MATa ade2-101 his3-200 hmg1::LYS2 hmg2:his3 lys2-80 met TRP1 ura3-52 with overexpression of yeast HMG1 containing plasmid) were used in the screening assay. Cells were grown at 30° C. in YEPD, consisting of 10 g/L yeast extract, 20 g/L Bacto-peptone and 20 g/L dextrose.
# Yeast cells were grown overnight in YEPD medium to ^˜7.0 OD660 at 30° C. Cells were then subculture to a fresh YEPD medium with starting ^˜0.1 starting OD660 and grew for another 8 hours to ^˜1.2 OD660. The assay was performed in a 96-well plate. 2.7×10^4 cells, tested drugs/chemicals and/or mevalonate were added to each well in a final volume of 100 μl. All experiments were performed in triplicate. Cells were then grown for 16 hours at 30° C. and the inhibitory effect of HMG-CoAR determined by measuring the cell density OD660 of each well by a micro-plate reader. Statin was used as a positive control and mevalonate supplement was used to validate the inhibitory effect of tested compounds on HMG-CoAR.
# HMG-CoAR = target: T1, HMG-CoAR (Homo sapiens, UniProt P04035); assay: In vitro HMG-CoAR activity assay (commercial kit, Sigma; NADPH oxidation at 340 nm); format: biochemical; conditions: 60 μg/ml
# T1 construct: the oxidation of NADPH by the catalytic subunit of HMGR in the presence of the substrate of HMG-CoA; purchased Sigma, USA
# T1 sequence (P04035 426-888 limits assumed): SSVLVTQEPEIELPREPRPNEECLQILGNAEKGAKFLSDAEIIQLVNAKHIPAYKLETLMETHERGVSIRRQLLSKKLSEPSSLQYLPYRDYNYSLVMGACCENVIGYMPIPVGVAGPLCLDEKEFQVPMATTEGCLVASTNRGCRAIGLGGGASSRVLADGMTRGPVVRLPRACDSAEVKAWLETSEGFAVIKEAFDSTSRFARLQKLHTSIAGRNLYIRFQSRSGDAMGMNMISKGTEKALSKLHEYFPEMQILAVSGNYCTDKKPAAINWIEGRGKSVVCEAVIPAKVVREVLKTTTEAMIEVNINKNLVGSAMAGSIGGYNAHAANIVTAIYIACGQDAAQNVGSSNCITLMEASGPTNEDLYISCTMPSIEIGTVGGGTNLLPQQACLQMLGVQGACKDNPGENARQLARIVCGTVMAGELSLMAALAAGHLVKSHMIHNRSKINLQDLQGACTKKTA
# Method: Commercial HMG-CoAR activity assay kit (Sigma, USA) is used in this experiment. The HMG-CoAR activity assay is based on the spectrophotometric measurement of the decrease in absorbance at 340 nm, which represents the oxidation of NADPH by the catalytic subunit of HMGR in the presence of the substrate of HMG-CoA. Pravastatin (Positive control), 7E1 or 7E2 are tested in this assay.
# The HMG-CoAR activity was determined by the commercially available in vitro assay kit (Sigma, USA). The protocol of the assay was performed as described in the manufacture's manual. The HMG-CoAR activity assay is based on the spectrophotometric measurement of the decrease in absorbance at 340 nm, which represents the oxidation of NADPH by the catalytic subunit of HMGR in the presence of the substrate of HMG-CoA.
# To validate the inhibitory effect of HMG-CoAR activity of compounds 7E1 and 7E2, in vitro HMG-CoAR activity is performed. Commercial HMG-CoAR activity assay kit (Sigma, USA) is used. The HMG-CoAR activity assay is based on the spectrophotometric measurement of the decrease in absorbance at 340 nm, which represents the oxidation of NADPH by the catalytic subunit of HMGR in the presence of the substrate of HMG-CoA. HMG-CoAR inhibitory effect of Pravastatin (Positive control), 7E1 or 7E2 are tested.
compound,measurement,setting,value
"CC(C)=CCC[C@](C)(O[C@@H]1O[C@H](CO[C@@H]2OC[C@@H](O)[C@H](O)[C@H]2O)[C@@H](O)[C@H](O)[C@H]1O)[C@H]1CC[C@]2(C)[C@@H]1[C@H](O)C[C@@H]1[C@@]3(C)CC[C@H](O[C@@H]4O[C@H](CO)[C@@H](O)[C@H](O)[C@H]4O)C(C)(C)[C@@H]3CC[C@]12C [Compound 7E2, gypenoside IX]",restoration of growth / reduction of inhibitory effect in the presence of mevalonate (compounds from Fraction 7),[1],significant reduction of inhibitory effects
same,growth inhibition in the yeast cells,[1]; 300 μg/ml,80%
same,inhibition of HMG-CoAR activity in vitro,HMG-CoAR,can inhibit the HMG-CoAR activity
gypenoside XLV-Ed [Compound 7E1],growth inhibition in the yeast cells,[1]; 150 μg/ml,65%
same,restoration of growth / reduction of inhibitory effect in the presence of mevalonate (compounds from Fraction 7),[1],significant reduction of inhibitory effects
same,inhibition of HMG-CoAR activity in vitro,HMG-CoAR,can inhibit the HMG-CoAR activity
